The source of these data is PubChem BioAssay (NCI).

SMILES strings stand for the structures.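 48-hour exposure; five concentrations; linearly interpolated endpoints. At the GI50, growth is halved. TGI denotes the concentration required for complete inhibition of growth.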

Holding throughout (experiment): NCI anticancer screen, dose series, 48 h
Experiment [1] concerns M14 melanoma.
Experiment [2] concerns HOP-62 NSCLC.
Experiment [3] has as its system NCI-H522 lung.
Experiment [4] deals with MDA-MB-231 breast.
For experiment [5], the system named is CAKI-1 renal.
Experiment [6] deals with NCI/ADR-RES ovarian.
Experiment [7] deals with LOX IMVI melanoma.
Experiment [8] has as its system MDA-MB-435.
The test system of experiment [9] is SF-268 CNS.
Experiment [10] concerns NCI-H460 lung.

`C=CC[C@@H]1/C=C(\C)C[C@H](C)C[C@H](OC)[C@H]2O[C@@](O)(C(=O)C(=O)N3CCCC[C@H]3C(=O)O[C@H](/C(C)=C/C3CC[C@@H](O)[C@H](OC)C3)[C@H](C)[C@@H](O)CC1=O)[C@H](C)C[C@@H]2OC` (stereo not given in full): the GI50 in [1] is 14.9 µM; in [2] it was 16.2 µM; in experiment [3], 12.7 µM; in experiment [4], 15.8 µM; in experiment [5] it was 12.9 µM; in [6] it was 15 µM. The GI50 in experiment [7] is 15 µM; in experiment [8], 16.2 µM; in experiment [9], 13.8 µM; in [10], 13.7 µM. For the same compound, the TGI came out at 28.6 µM in experiment [1]; 31.1 µM in experiment [2]; 27 µM in [3]; 31.4 µM in experiment [4]; 33.4 µM in [5]; 35.3 µM in [6]. Besides, the TGI in [7] was found to be 29.7 µM; in [8] it was 37.7 µM; in experiment [9], 27.3 µM; in experiment [10], 27.9 µM.

For `O=C(CN1C(=O)S/C(=C\C(Cl)=C\c2ccccc2)C1=O)NCCc1ccc(O)cc1`, the GI50 in experiment [1] was 1.65 µM; in [2], 3.34 µM; in experiment [3] it was 1.96 µM; in experiment [4], 2.09 µM; in [5] it was 1.78 µM; in experiment [6], 2.44 µM. In addition, the GI50 in experiment [7] is 1.42 µM; in experiment [8], 2.09 µM; in [9], 2.28 µM; in [10], 2 µM. In addition, the TGI stood at 4.11 µM in experiment [1]; 15.7 µM in [2]; 5.77 µM in experiment [3]; 6.52 µM in experiment [4]; 3.76 µM in experiment [5]; 8.81 µM in experiment [6]. Further, the TGI in experiment [7] was 2.85 µM; in experiment [8] it was 5.28 µM; in experiment [9], 6.63 µM; in [10], 6.12 µM.

Turning to `NC1=CC(=O)c2nc3ccccc3c3ccnc1c23`, the GI50 in experiment [1] is 0.342 µM; in experiment [2] it was 4.47 µM; in [3], 2.48 µM; in [4], 16.9 µM; in [5], 4.98 µM; in experiment [6], 7.33 µM. Moreover, the GI50 in [7] was 0.219 µM; in experiment [8] it was 1.22 µM; in experiment [9] it was 4.26 µM; in experiment [10] it was 0.0908 µM. For the same compound, the TGI in experiment [1] was 26.7 µM; in experiment [2], more than 45.1 µM; in experiment [3], 17.3 µM; in experiment [4] it was more than 70.1 µM; in experiment [5] it was more than 95.6 µM; in experiment [6], 69.4 µM. Besides, the TGI amounted to 4.22 µM in [7], 19 µM in [8], 22.1 µM in experiment [9] and 4.6 µM in experiment [10].

`Cc1sc(NC2=NC(=O)/C(=C\c3ccccc3)S2)nc1-c1nc(NC2=NC(=O)/C(=C\c3ccccc3)S2)sc1C`: the GI50 in experiment [1] was 9.51 µM; in [2], 8.71 µM; in [3] it was 22.3 µM; in [4] it was 10.2 µM; in experiment [5], 12.1 µM; in experiment [6] it was 14.4 µM. For the same compound, the GI50 was 11.2 µM in [7], 16.3 µM in [8], 14.7 µM in [9] and 15.5 µM in experiment [10]. The TGI in [1] is 23.6 µM; in [2] it was 22.9 µM; in [3], more than 50 µM; in experiment [4] it was 27 µM; in [5] it was 33.2 µM; in [6] it was 43.8 µM. Moreover, the TGI in experiment [7] is 35.3 µM; in experiment [8], more than 50 µM; in [9], 49.4 µM; in experiment [10], more than 50 µM.

As to `Nc1ccc(-c2nc3ccccc3o2)cc1S`, the GI50 was 15.5 µM in [1]; 14.5 µM in [2]; 35.5 µM in experiment [3]; 6.14 µM in [4]; 20.5 µM in [5]; 24.9 µM in [6]. The GI50 in experiment [7] is 12.3 µM; in [8], 17.8 µM; in experiment [9], 15 µM; in experiment [10] it was 13.2 µM. The TGI in experiment [1] was 36.7 µM; in [2] it was 27.7 µM; in [3], more than 100 µM; in experiment [4] it was 23.6 µM; in [5], 36.4 µM; in experiment [6], 65.2 µM. Besides, the TGI in experiment [7] came to 24.8 µM; in experiment [8], 36.9 µM; in experiment [9] it was 34.5 µM; in [10], 29.6 µM.

For `CC(C(=O)O)/C(=C\c1ccc2c(c1)OCO2)C(=O)O` (stereo not given), the TGI in [1], in [2], in experiment [3], in experiment [4], in experiment [5] and in [6] was more than 100 µM each time. Besides, the TGI in [7], in experiment [8], in experiment [9] and in [10] was more than 100 µM throughout.

As to `Cn1ccnc1C(=O)/C=C/c1ccc(CC(=O)Nc2ccc(F)cc2)cc1`, the GI50 in [1] was 3.23 µM; in experiment [2], 4.68 µM; in experiment [3], 3.34 µM; in [4] it was 2.96 µM; in experiment [5], 3.14 µM; in experiment [6] it was 4.24 µM. Besides, the GI50 in [7] was 0.712 µM; in experiment [8] it was 4.25 µM; in experiment [9] it was 2.89 µM; in experiment [10] it was 1.8 µM. Besides, the TGI was 7.95 µM in [1]; 19 µM in experiment [2]; 8.41 µM in experiment [3]; 12.8 µM in experiment [4]; more than 25 µM in experiment [5]; more than 25 µM in experiment [6]. In addition, the TGI in experiment [7] stood at 3.9 µM; in [8], 14.9 µM; in experiment [9], 13.5 µM; in experiment [10], 9.89 µM.
